The values below come from patent US11708348B2, “Protease inhibitors for treatment of coronavirus infections” (The Scripps Research Institute, priority 2021, dated 2023).

Usually EC50 stands for the concentration that produces a half-maximal response.

For the assay, the system named is SARS-CoV-2 strain USA-WA1/2020. Nature of the assay: microbe, parasite or virus in culture. The following applies: Severe acute respiratory syndrome coronavirus 2, HeLa-ACE2, 24 h, HeLa-ACE2 cells, SARS-CoV-2 infection, 24 h; read-out: EC50, uM (Hela). The assay is classed as cell-based.
Consider `COc1cccc2[nH]c(C(=O)N3CC4(CC4)C[C@H]3C(=O)N[C@@H](C[C@@H]3CCNC3=O)C(=O)COC(F)(F)F)cc12` [Compound 605, (S)-5-(4-methoxy-1H-indole-2-carbonyl)-N-((S)-3-oxo-1-((S)-2-oxopyrrolidin-3-yl)-4-(trifluorometh-oxy)butan-2-yl)-5-azaspiro[2.4]heptane-6-carboxamide], for which the EC50 is < 0.05 µM. To `O=C(Nc1ccccc1Cl)C(=O)N1CC2(CC2)C[C@H]1C(=O)N[C@@H](C[C@@H]1CCNC1=O)C(=O)COC(F)(F)F` [Compound 606, (S)-5-(2-((2-chlorophenyl)amino)-2-oxoacetyl)-N-((S)-3-oxo-1-((S)-2-oxopyrrolidin-3-yl)-4-(trifluoromethoxy)butan-2-yl)-5-azaspiro[2.4]heptane-6-carboxamide] belongs < 0.05 µM; to `O=C(Nc1cccc(Cl)c1)C(=O)N1CC2(CC2)C[C@H]1C(=O)N[C@@H](C[C@@H]1CCNC1=O)C(=O)COC(F)(F)F` [Compound 607, (S)-5-(2-((3-chlorophenyl)amino)-2-oxoacetyl)-N-((S)-3-oxo-1-((S)-2-oxopyrrolidin-3-yl)-4-(trifluoromethoxy)butan-2-yl)-5-azaspiro[2.4]heptane-6-carboxamide], < 0.05 µM; to `COc1cccc2[nH]c(C(=O)N3C[C@@H]4CCC[C@@H]4[C@H]3C(=O)N[C@@H](C[C@@H]3CCNC3=O)C(=O)COC(F)(F)F)cc12` [Compound 608, (1S,3aR,6aS)-2-(4-methoxy-1H-indole-2-carbonyl)-N-((S)-3-oxo-1-((S)-2-oxopyrrolidin-3-yl)-4-(trifluoromethoxy)butan-2-yl)octahydrocyclopenta[c]pyrrole-1-carboxamide], < 0.05 µM. To `O=C1NCC[C@H]1C[C@H](NC(=O)[C@@H]1[C@H]2CCC[C@H]2CN1C(=O)c1noc2cc(Cl)ccc12)C(=O)COC(F)(F)F` [Compound 609, (1S,3aR,6aS)-2-(6-chlorobenzo[d]isoxazole-3-carbonyl)-N-((S)-3-oxo-1-((S)-2-oxopyrrolidin-3-yl)-4-(trifluoromethoxy)butan-2-yl)octahydrocyclopenta[c]pyrrole-1-carboxamide] belongs < 0.05 µM; to `O=C(Nc1ccccc1OC(F)(F)F)C(=O)N1CC2(CC2)C[C@H]1C(=O)N[C@@H](C[C@@H]1CCNC1=O)C(=O)COC(F)(F)F` [Compound 610, (S)-N-((S)-3-oxo-1-((S)-2-oxopyrrolidin-3-yl)-4-(trifluoromethoxy)butan-2-yl)-5-(2-oxo-2-((2-(trifluoromethoxy)phenyl)amino)acetyl)-5-azaspiro[2.4]heptane-6-carboxamide], < 0.05 µM.

For the compound `O=C1NCC[C@H]1C[C@H](NC(=O)[C@@H]1[C@H]2CCC[C@H]2CN1C(=O)c1noc2cc(F)ccc12)C(=O)COC(F)(F)F` [Compound 611, (1S,3aR,6aS)-2-(6-fluorobenzo[d]isoxazole-3-carbonyl)-N-((S)-3-oxo-1-((S)-2-oxopyrrolidin-3-yl)-4-(trifluoromethoxy)butan-2-yl)octahydrocyclopenta[c]pyrrole-1-carboxamide], the concentration giving a half-maximal response (EC50) was < 0.05 µM. On to `CC(C)(C)c1ccccc1NC(=O)C(=O)N1CC2(CC2)C[C@H]1C(=O)N[C@@H](C[C@@H]1CCNC1=O)C(=O)COC(F)(F)F` [Compound 613, (S)-5-(2-((2-(tert-butyl)phenyl)amino)-2-oxoacetyl)-N-((S)-3-oxo-1-((S)-2-oxopyrrolidin-3-yl)-4-(trifluoromethoxy)butan-2-yl)-5-azaspiro[2.4]heptane-6-carboxamide], for which the EC50 is < 0.05 µM.

In the case of `O=C1NCC[C@H]1C[C@H](NC(=O)[C@@H]1[C@H]2CCC[C@H]2CN1C(=O)c1noc2ccc(F)cc12)C(=O)COC(F)(F)F` [Compound 614, (1S,3aR,6aS)-2-(5-fluorobenzo[d]isoxazole-3-carbonyl)-N-((S)-3-oxo-1-((S)-2-oxopyrrolidin-3-yl)-4-(trifluoromethoxy)butan-2-yl)octahydrocyclopenta[c]pyrrole-1-carboxamide], the concentration giving a half-maximal response (EC50) is < 0.05 µM.
